Test results as given in ChEMBL document CHEMBL3046897, “Synthesis of 3-{4-[4-dimethylamino-6-(4-methyl-2-oxo-2H-chromen-7-yloxy)-[1,3,5]triazin-2-ylamino]-phenyl}-2-phenyl-5-(4-pyridin-2-yl-piperazin-1-ylmethyl)-thiazolidin-4-one and their biological evaluation” (2012).
≈ marks a conversion by molar mass, not a printed value.

Key:
Type in all cases: functional
Shigella flexneri [1] = assay: Antibacterial activity against Shigella flexneri after 24 hr by agar streak dilution method
Proteus vulgaris [2] = assay: Antibacterial activity against Proteus vulgaris after 24 hr by agar streak dilution method
Salmonella typhi [3] = assay: Antibacterial activity against Salmonella enterica subsp. enterica serovar Typhi after 24 hr by agar streak dilution method
Klebsiella pneumoniae [4] = assay: Antibacterial activity against Klebsiella pneumoniae after 24 hr by agar streak dilution method
Candida albicans [5] = assay: Antifungal activity against Candida albicans at 100 ug/disk after 48 hr by paper disk diffusion method; details: read-out: IZ
Aspergillus clavatus [6] = assay: Antifungal activity against Aspergillus clavatus at 100 ug/disc after 48 hr by paper disk diffusion method; details: read-out: IZ
Aspergillus fumigatus [7] = assay: Antifungal activity against Aspergillus fumigatus at 100 ug/disc after 48 hr by paper disk diffusion method; details: read-out: IZ
Aspergillus niger [8] = assay: Antifungal activity against Aspergillus niger at 100 ug/disk after 48 hr by paper disk diffusion method; details: read-out: IZ
Candida albicans [9] = assay: Antifungal activity against Candida albicans after 48 hr by agar streak dilution method
Aspergillus clavatus [10] = assay: Antifungal activity against Aspergillus clavatus after 48 hr by agar streak dilution method
Aspergillus niger [11] = assay: Antifungal activity against Aspergillus niger after 48 hr by agar streak dilution method
Pseudomonas aeruginosa [12] = assay: Antibacterial activity against Pseudomonas aeruginosa after 24 hr by agar streak dilution method
Escherichia coli [13] = assay: Antibacterial activity against Escherichia coli after 24 hr by agar streak dilution method
Shigella flexneri [14] = assay: Antibacterial activity against Shigella flexneri at 100 ug/disc after 24 hr by paper disk diffusion method; details: read-out: IZ
Proteus vulgaris [15] = assay: Antibacterial activity against Proteus vulgaris at 100 ug/disk after 24 hr by paper disk diffusion method; details: read-out: IZ
Salmonella typhi [16] = assay: Antibacterial activity against Salmonella enterica subsp. enterica serovar Typhi at 100 ug/disk after 24 hr by paper disk diffusion method; details: read-out: IZ
Klebsiella pneumoniae [17] = assay: Antibacterial activity against Klebsiella pneumoniae at 100 ug/disk after 24 hr by paper disk diffusion method; details: read-out: IZ
Pseudomonas aeruginosa [18] = assay: Antibacterial activity against Pseudomonas aeruginosa at 100 ug/disk after 24 hr by paper disk diffusion method; details: read-out: IZ
Escherichia coli [19] = assay: Antibacterial activity against Escherichia coli at 100 ug/disk after 24 hr by paper disk diffusion method; details: read-out: IZ
Bacillus subtilis [20] = assay: Antibacterial activity against Bacillus subtilis after 24 hr by agar streak dilution method
Staphylococcus aureus [21] = assay: Antibacterial activity against Staphylococcus aureus after 24 hr by agar streak dilution method
Bacillus subtilis [22] = assay: Antibacterial activity against Bacillus subtilis at 100 ug/disk after 24 hr by paper disk diffusion method; details: read-out: IZ
Staphylococcus aureus [23] = assay: Antibacterial activity against Staphylococcus aureus at 100 ug/disc after 24 hr by paper disk diffusion method; details: read-out: IZ
Aspergillus fumigatus [24] = assay: Antifungal activity against Aspergillus fumigatus after 48 hr by agar streak dilution method

SMILES	MIC (Shigella flexneri [1]) [mg/L]	MIC (Proteus vulgaris [2]) [mg/L]	MIC (Salmonella typhi [3]) [mg/L]	MIC (Klebsiella pneumoniae [4]) [mg/L]	zone of inhibition at 100 µg/disc (Candida albicans [5]) [mm]	zone of inhibition at 100 µg/disc (Aspergillus clavatus [6]) [mm]	zone of inhibition at 100 µg/disc (Aspergillus fumigatus [7]) [mm]	zone of inhibition at 100 µg/disc (Aspergillus niger [8]) [mm]	MIC (Candida albicans [9]) [mg/L]	MIC (Aspergillus clavatus [10]) [mg/L]	MIC (Aspergillus niger [11]) [mg/L]	MIC (Pseudomonas aeruginosa [12]) [mg/L]	MIC (Escherichia coli [13]) [mg/L]	zone of inhibition at 100 µg/disc (Shigella flexneri [14]) [mm]	zone of inhibition at 100 µg/disc (Proteus vulgaris [15]) [mm]	zone of inhibition at 100 µg/disc (Salmonella typhi [16]) [mm]	zone of inhibition at 100 µg/disc (Klebsiella pneumoniae [17]) [mm]	zone of inhibition at 100 µg/disc (Pseudomonas aeruginosa [18]) [mm]	zone of inhibition at 100 µg/disc (Escherichia coli [19]) [mm]	MIC (Bacillus subtilis [20]) [mg/L]	further results
Cc1cc(=O)oc2cc(Oc3nc(Nc4ccc(N5C(=O)CSC5c5ccc(Cl)cc5Cl)cc4)nc(N(C)C)n3)ccc12 (centres undefined)	50 (≈ 78.7 µM)	50 (≈ 78.7 µM)	100 (≈ 157 µM)	50 (≈ 78.7 µM)	16	19	17	14	100 (≈ 157 µM)	50 (≈ 78.7 µM)	100 (≈ 157 µM)	50 (≈ 78.7 µM)	50 (≈ 78.7 µM)	17	18	16	19	16	17	50 (≈ 78.7 µM)	MIC (Staphylococcus aureus [21]): 50 mg/L (≈ 78.7 µM); zone of inhibition at 100 µg/disc (Bacillus subtilis [22]): 19 mm; zone of inhibition at 100 µg/disc (Staphylococcus aureus [23]): 17 mm; MIC (Aspergillus fumigatus [24]): 50 mg/L (≈ 78.7 µM)
Cc1cc(=O)oc2cc(Oc3nc(Nc4ccc(N5C(=O)C(CN6CCN(c7ccccn7)CC6)SC5c5ccc(O)cc5)cc4)nc(N(C)C)n3)ccc12 (centres undefined)	25 (≈ 33 µM)	12.5 (≈ 16.5 µM)	6.25 (≈ 8.25 µM)	25 (≈ 33 µM)	23	21	25	27	12.5 (≈ 16.5 µM)	25 (≈ 33 µM)	6.25 (≈ 8.25 µM)	12.5 (≈ 16.5 µM)	6.25 (≈ 8.25 µM)	22	25	27	19	23	30	6.25 (≈ 8.25 µM)	MIC (Staphylococcus aureus [21]): 6.25 mg/L (≈ 8.25 µM); zone of inhibition at 100 µg/disc (Bacillus subtilis [22]): 25 mm; zone of inhibition at 100 µg/disc (Staphylococcus aureus [23]): 27 mm; MIC (Aspergillus fumigatus [24]): 6.25 mg/L (≈ 8.25 µM)
Cc1cc(=O)oc2cc(Oc3nc(Nc4ccc(N5C(=O)C(CN6CCN(c7ccccn7)CC6)SC5c5ccc(O)cc5O)cc4)nc(N(C)C)n3)ccc12 (centres undefined)	6.25 (≈ 8.08 µM)	25 (≈ 32.3 µM)	6.25 (≈ 8.08 µM)	6.25 (≈ 8.08 µM)	27	22	23	21	6.25 (≈ 8.08 µM)	12.5 (≈ 16.2 µM)	25 (≈ 32.3 µM)	25 (≈ 32.3 µM)	12.5 (≈ 16.2 µM)	26	22	28	27	20	23	12.5 (≈ 16.2 µM)	MIC (Staphylococcus aureus [21]): 6.25 mg/L (≈ 8.08 µM); zone of inhibition at 100 µg/disc (Bacillus subtilis [22]): 23 mm; zone of inhibition at 100 µg/disc (Staphylococcus aureus [23]): 26 mm; MIC (Aspergillus fumigatus [24]): 12.5 mg/L (≈ 16.2 µM)
COc1ccc(/C=N/c2ccc(Nc3nc(Oc4ccc5c(C)cc(=O)oc5c4)nc(N(C)C)n3)cc2)cc1	100 (≈ 191 µM)	50 (≈ 95.7 µM)	50 (≈ 95.7 µM)	100 (≈ 191 µM)	17	11	13	16	50 (≈ 95.7 µM)	100 (≈ 191 µM)	50 (≈ 95.7 µM)	100 (≈ 191 µM)	100 (≈ 191 µM)	10	16	18	14	12	10	100 (≈ 191 µM)	MIC (Staphylococcus aureus [21]): 100 mg/L (≈ 191 µM); zone of inhibition at 100 µg/disc (Bacillus subtilis [22]): 13 mm; zone of inhibition at 100 µg/disc (Staphylococcus aureus [23]): 15 mm; MIC (Aspergillus fumigatus [24]): 100 mg/L (≈ 191 µM)
Cc1cc(=O)oc2cc(Oc3nc(Nc4ccc(N5C(=O)C(CN6CCN(c7ccccn7)CC6)SC5c5ccc([N+](=O)[O-])cc5)cc4)nc(N(C)C)n3)ccc12 (centres undefined)	100 (≈ 127 µM)	100 (≈ 127 µM)	50 (≈ 63.5 µM)	100 (≈ 127 µM)	13	20	18	15	100 (≈ 127 µM)	50 (≈ 63.5 µM)	100 (≈ 127 µM)	100 (≈ 127 µM)	100 (≈ 127 µM)	14	10	18	15	13	16	100 (≈ 127 µM)	MIC (Staphylococcus aureus [21]): 100 mg/L (≈ 127 µM); zone of inhibition at 100 µg/disc (Bacillus subtilis [22]): 13 mm; zone of inhibition at 100 µg/disc (Staphylococcus aureus [23]): 16 mm; MIC (Aspergillus fumigatus [24]): 50 mg/L (≈ 63.5 µM)
Cc1ccc(/C=N/c2ccc(Nc3nc(Oc4ccc5c(C)cc(=O)oc5c4)nc(N(C)C)n3)cc2)cc1	50 (≈ 98.7 µM)	100 (≈ 197 µM)	50 (≈ 98.7 µM)	100 (≈ 197 µM)	17	16	15	17	50 (≈ 98.7 µM)	100 (≈ 197 µM)	50 (≈ 98.7 µM)	50 (≈ 98.7 µM)	100 (≈ 197 µM)	18	11	17	10	18	< 10	50 (≈ 98.7 µM)	MIC (Staphylococcus aureus [21]): 100 mg/L (≈ 197 µM); zone of inhibition at 100 µg/disc (Bacillus subtilis [22]): 17 mm; zone of inhibition at 100 µg/disc (Staphylococcus aureus [23]): 16 mm; MIC (Aspergillus fumigatus [24]): 100 mg/L (≈ 197 µM)
